Data published in article PMC7933930, “Development of a small molecule that corrects misfolding and increases secretion of Z α1‐antitrypsin” (EMBO Molecular Medicine, 2021).

Columns and labels:
α1‐antitrypsin [1] = assay: SYPRO Orange thermal shift assay; type: biochemical, human; conditions: 50μM GSK716
From the text: (§1) Polymerisation of α1‐antitrypsin involves transition through a transient intermediate state known as M*, that is readily populated by the Z variant (Dafforn et al, 1999; Knaupp et al, 2010). The M* conformational ensemble appears to be a distinct species between the native state conformation and that of the final polymer. One of the hallmarks of M* is its recognition by environment‐sensitive fluorescent reporter dyes. Thermal shift assays that make use of the dye SYPRO Orange report the stability of the protein native state against heat‐induced unfolding. […] Native state stability can also be probed by equilibrium unfolding using chemical denaturants, where a peak in bis‐ANS fluorescence corresponds with a maximally populated unfolding intermediate (James & Bottomley, 1998). […] The association of GSK716 induced a marked quenching and blue‐shift of the α1‐antitrypsin intrinsic tryptophan fluorescence spectrum (Fig 4D, inset). The rate of change in fluorescence during association of 10µM GSK716 was proportional to the propensity of α1‐antitrypsin mutants to form polymers in vivo: inert (M), mild (S), moderate (Baghdad) and severe (Z) α1‐antitrypsin (Fig 4D, top and bottom). […]

α1‐antitrypsin [2] = assay: Equilibrium unfolding in guanidinium hydrochloride with bis‐ANS; type: biochemical, human; conditions: 50 µM GSK716, guanidinium hydrochloride; ~ 1.3 M in its absence
From the text: as §1

Z α1‐antitrypsin = Z α1‐antitrypsin (Homo sapiens, UniProt P01009, E366K); assay: TR‐FRET immunoassay (2C1 antibody) of Z α1‐antitrypsin polymerisation, 37°C, 72 h; type: biochemical; design: purified from the plasma of Z α1‐antitrypsin homozygotes; from tissue; host or cells: human plasma of Z α1-antitrypsin homozygotes
From the text: Z α1‐antitrypsin is a conformationally dynamic molecule (Lomas et al, 1992; Knaupp et al, 2010) that represents a non‐classical target for drug discovery. A cell‐free assay approach to hit finding was undertaken so as not to miss compounds that bind α1‐antitrypsin and block polymerisation but lack the molecular properties to cross cell membranes. This comprised the following: (i) an encoded library technology (ELT) screen (Goodnow et al, 2017) of a library with a nominal diversity of 2 × 10^12 unique components to identify binders to Z α1‐antitrypsin and (ii) a high‐throughput screen (HTS) of the GSK compound collection (~ 1.7 million compounds) for small molecules that could block polymerisation of Z α1‐antitrypsin. […] In the HTS assay, polymerisation of purified Z α1‐antitrypsin was induced by incubation at 37°C for 72 h in the presence of test compounds, with end‐point quantification of polymers performed using the polymer‐specific monoclonal antibody, 2C1 (Miranda et al, 2010) in a TR‐FRET‐based immunoassay. […]
An antibody‐based time‐resolved fluorescence resonance energy transfer (TR‐FRET) assay was developed to monitor the polymerisation of 5 nM Z α1‐antitrypsin following incubation with varying concentrations of compounds at 37°C for 72 h. This assay used the 2C1 monoclonal antibody (1.25 nM) that is specific to pathological polymers of α1‐antitrypsin (Miranda et al, 2010), a polyclonal antibody (1/320 dilution) that binds to all forms of α1‐antitrypsin (Abcam product 9373), an anti‐mouse IgG (1.5 nM) labelled with fluorescence donor Eu‐W1024 (Perkin Elmer product AD0076) and an anti‐rabbit IgG (14.3 nM labelled with acceptor [APC]). […] The TR‐FRET signal was read on an Envision plate reader (PerkinElmer), by excitation of Europium at 337 nm and detection of emission at 665 and 620 nm.

Chain of Z α1‐antitrypsin (P01009 25-418 E366K): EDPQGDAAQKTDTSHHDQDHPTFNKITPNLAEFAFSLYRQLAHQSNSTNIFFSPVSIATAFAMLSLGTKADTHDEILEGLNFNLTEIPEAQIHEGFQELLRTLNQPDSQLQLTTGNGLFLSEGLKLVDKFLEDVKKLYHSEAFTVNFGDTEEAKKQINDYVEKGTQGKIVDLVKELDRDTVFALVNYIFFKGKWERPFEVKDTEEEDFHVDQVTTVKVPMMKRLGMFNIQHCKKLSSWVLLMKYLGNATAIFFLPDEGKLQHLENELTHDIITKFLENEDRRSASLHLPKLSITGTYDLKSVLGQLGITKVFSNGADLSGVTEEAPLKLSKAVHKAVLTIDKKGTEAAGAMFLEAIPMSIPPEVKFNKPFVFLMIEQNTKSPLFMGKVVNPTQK

CCC[C@@H](NC(=O)c1cccc2c1CC(=O)N2)[C@@H](O)c1cccc(F)c1C [GSK716]
transition midpoint temperature (α1‐antitrypsin [1]): marked increase
denaturant concentration at peak bis‐ANS fluorescence (maximally populated unfolding intermediate) (α1‐antitrypsin [2]): ~ 1.9 M
IC50 (Z α1‐antitrypsin; 5 nM Z α1‐antitrypsin, 37°C, 72 h, read-out: pIC50, blocking polymerisation in the TR‐FRET immunoassay (converted)): 5.01 nM
increase in potency over GSK425 (Z α1‐antitrypsin; TR‐FRET polymerisation immunoassay): ~ 100 fold
